The source of these data is ChEMBL document CHEMBL1614632, “Trend analysis of a database of intravenous pharmacokinetic parameters in humans for 670 drug compounds” (Drug Metab Dispos, 2008).

A short description of data set [1]: clinical. As to conditions: human, in vivo, iv.
A short description of data set [2]: clinical. Conditions: human, in vivo, iv, Vdss.
Data set [3] in a line: clinical. As to conditions: human, in vivo, iv, t1/2.
Data set [4] can be described thus: clinical. Conditions: human, in vivo, iv, CL.

For `CN(C)CCC=C1c2ccccc2COc2ccccc21` [DOXEPIN], the MRT in “clinical [1]” turned out to be 15 h. The compound also came in with a Vd in the data set “clinical [2]” of 12 L/kg. In addition, in the data set “clinical [3]”, the half-life was 15 h. In the data set “clinical [4]”, the clearance amounted to 14 mL/min/kg.

In turn, `CN1C(=O)CC[C@H]1c1cccnc1` [COTININE] showed a mean residence time (MRT) in the data set “clinical [1]” of 21 h. The Vd in “clinical [2]” turned out to be 1.1 L/kg. This compound showed a half-life in the data set “clinical [3]” of 17 h. Besides, the clearance in the data set “clinical [4]” is 0.89 mL/min/kg.

In the case of `CN(C)Cc1nnc2n1-c1ccc(Cl)cc1C(c1ccccc1)=NC2` [ADINAZOLAM], in “clinical [1]”, the mean residence time MRT was found to be 2.6 h. Moreover, the Vd in “clinical [2]” was found to be 0.98 L/kg. In “clinical [3]”, this compound gave a half-life of 2.1 h. This compound showed a clearance in “clinical [4]” of 6.2 mL/min/kg.

`Nc1ccn(C[C@@H](CO)OCP(=O)(O)O)c(=O)n1.O.O` [CIDOFOVIR]: in the data set “clinical [1]”, the mean residence time (MRT) was determined as 3.3 h. This compound also showed a Vd in the data set “clinical [2]” of 0.49 L/kg. Also, in the data set “clinical [3]”, the half-life is 2.6 h. Besides, in the data set “clinical [4]”, the clearance was found to be 2.5 mL/min/kg.

For `Nc1nc2c(c(=O)[nH]1)N(C=O)C(CNc1ccc(C(=O)N[C@@H](CCC(=O)O)C(=O)O)cc1)CN2` (some centres undefined) [LEUCOVORIN], the mean residence time MRT in the data set “clinical [1]” is 0.8 h. For the same compound, the Vd in the data set “clinical [2]” was found to be 0.25 L/kg. Moreover, the half-life in the data set “clinical [3]” was 1.3 h. This compound also showed a clearance in “clinical [4]” of 5.8 mL/min/kg.

Regarding `CCC#CC[C@H](C)[C@H](O)C#C[C@@H]1[C@H]2C/C(=C/COCC(=O)O)C[C@H]2C[C@H]1O` [CICAPROST], the mean residence time MRT in the data set “clinical [1]” was 0.35 h. The compound further yielded a distribution volume (Vd) in “clinical [2]” of 0.08 L/kg. Besides, the half-life in the data set “clinical [3]” is 1.1 h. Moreover, in “clinical [4]”, the clearance amounted to 3.8 mL/min/kg.

In turn, `CN1CCOC(c2ccccc2)c2ccccc2C1` (centres undefined) [NEFOPAM] registered an MRT in the data set “clinical [1]” of 8.1 h. The same compound yielded a Vd in “clinical [2]” of 5.6 L/kg. In the data set “clinical [3]”, this compound had a half-life of 5 h. Further, in “clinical [4]”, the clearance worked out at 12 mL/min/kg.

As for `CCOC(=O)Nc1ccc(NCc2ccc(F)cc2)nc1N` [FLUPIRTINE], in the data set “clinical [1]”, the MRT was found to be 11 h. For the same compound, in “clinical [2]”, the Vd came to 1.1 L/kg. Moreover, the half-life in “clinical [3]” was 8.5 h. This compound also registered a clearance in the data set “clinical [4]” of 1.6 mL/min/kg.

The compound `CC(C)(O)c1ccccc1CC[C@@H](SCC1(CC(=O)O)CC1)c1cccc(/C=C/c2ccc3ccc(Cl)cc3n2)c1` [MONTELUKAST] displayed an MRT in the data set “clinical [1]” of 3.8 h. The compound further yielded a distribution volume (Vd) in the data set “clinical [2]” of 0.15 L/kg. This compound also had a half-life in “clinical [3]” of 5 h. In the data set “clinical [4]”, this compound returned a clearance of 0.68 mL/min/kg.

On to `O=C(O)C1N=C(c2ccccc2)c2cc(Cl)ccc2NC1=O` (centres undefined) [CLORAZEPIC ACID], for which, in “clinical [1]”, the mean residence time (MRT) turned out to be 3 h. Also, in “clinical [2]”, the volume of distribution (Vd) amounted to 0.2 L/kg. The same compound gave a half-life in “clinical [3]” of 2.4 h. In “clinical [4]”, this compound displayed a clearance of 1.1 mL/min/kg.

In “clinical [1]”, `Cc1cccc(Nc2ccncc2S(=O)(=O)NC(=O)NC(C)C)c1` [TORSEMIDE] had an MRT of 6.6 h. In addition, the Vd in “clinical [2]” stood at 0.21 L/kg. The half-life in “clinical [3]” was 5.1 h. In the data set “clinical [4]”, the clearance was determined as 0.53 mL/min/kg.

In the data set “clinical [1]”, `Clc1ccc2nsnc2c1NC1=NCCN1` [TIZANIDINE] came in with an MRT of 3.6 h. The Vd in “clinical [2]” amounted to 2.4 L/kg. In “clinical [3]”, this compound had a half-life of 2.4 h. In “clinical [4]”, this compound showed a clearance of 11 mL/min/kg.

On to `CN(C)CCc1c[nH]c2ccc(Cn3cncn3)cc12` [RIZATRIPTAN], for which the MRT in “clinical [1]” was 1.98 h. The compound also displayed a Vd in “clinical [2]” of 1.9 L/kg. This compound showed a half-life in “clinical [3]” of 2.2 h. In addition, in “clinical [4]”, the clearance is 16 mL/min/kg.

As to `CN(C)C(=N)N=C(N)N` [METFORMIN], the MRT in “clinical [1]” was 1.4 h. The same compound had a Vd in the data set “clinical [2]” of 0.64 L/kg. The half-life in “clinical [3]” was 1.7 h. Further, the clearance in the data set “clinical [4]” worked out at 7.4 mL/min/kg.

For `COc1cc(OC)c(C(=O)CCCN2CCCC2)c(OC)c1` [BUFLOMEDIL], the MRT in the data set “clinical [1]” amounted to 3.9 h. In addition, the Vd in the data set “clinical [2]” is 1.3 L/kg. For the same compound, the half-life in “clinical [3]” was 3.3 h. Also, in the data set “clinical [4]”, the clearance is 5.6 mL/min/kg.

With `CNC(=C[N+](=O)[O-])NCCSCc1csc(CN(C)C)n1` [NIZATIDINE], the MRT in the data set “clinical [1]” came out at 1.7 h. In the data set “clinical [2]”, this compound showed a Vd of 1 L/kg. The compound also gave a half-life in the data set “clinical [3]” of 1.5 h. The compound also displayed a clearance in the data set “clinical [4]” of 9.8 mL/min/kg.

On to `CN1C(=O)C(O)N=C(c2ccccc2Cl)c2cc(Cl)ccc21` (centres undefined) [LORMETAZEPAM], for which the MRT in the data set “clinical [1]” was found to be 6.7 h. The compound also had a Vd in “clinical [2]” of 1.6 L/kg. For the same compound, in the data set “clinical [3]”, the half-life was 4.9 h. In addition, the clearance in the data set “clinical [4]” came to 4 mL/min/kg.

In “clinical [1]”, `O=C(O)Cn1c(=O)c(=O)[nH]c2cc([N+](=O)[O-])c(-n3ccnc3)cc21` [ZONAMPANEL] yielded an MRT of 0.6 h. In the data set “clinical [2]”, this compound displayed a Vd of 0.19 L/kg. Besides, the half-life in “clinical [3]” is 0.78 h. Besides, the clearance in the data set “clinical [4]” came to 5.3 mL/min/kg.

On to `Cc1nnc2n1-c1ccc(Cl)cc1C(c1ccccc1)=NC2` [ALPRAZOLAM], for which the MRT in “clinical [1]” amounted to 18 h. Also, the distribution volume (Vd) in the data set “clinical [2]” turned out to be 0.8 L/kg. For the same compound, the half-life in “clinical [3]” was 12 h. The clearance in the data set “clinical [4]” came to 0.74 mL/min/kg.

On to `CCC1(c2ccccc2)C(=O)NC(=O)NC1=O` [PHENOBARBITAL], for which the mean residence time (MRT) in the data set “clinical [1]” was 140 h. Also, in “clinical [2]”, the Vd was 0.54 L/kg. The compound further gave a half-life in “clinical [3]” of 99 h. The clearance in the data set “clinical [4]” came to 0.063 mL/min/kg.

`CCN1CC(CCN2CCOCC2)C(c2ccccc2)(c2ccccc2)C1=O` (centres undefined) [DOXAPRAM] displayed a mean residence time MRT in “clinical [1]” of 3.7 h. For the same compound, the Vd in “clinical [2]” was found to be 1.2 L/kg. For the same compound, the half-life in the data set “clinical [3]” is 4.1 h. This compound also showed a clearance in the data set “clinical [4]” of 5.3 mL/min/kg.

`CCCCNc1cc(C(=O)O)cc(S(N)(=O)=O)c1Oc1ccccc1` [BUMETANIDE] came in with an MRT in “clinical [1]” of 1.1 h. Moreover, in the data set “clinical [2]”, the volume of distribution (Vd) was 0.16 L/kg. This compound showed a half-life in the data set “clinical [3]” of 1.2 h. In “clinical [4]”, this compound gave a clearance of 2.5 mL/min/kg.

In the case of `Cc1cnc(NCCCN(C)C)c2c1[nH]c1ccc3cc(O)ccc3c12` [INTOPLICINE], the MRT in “clinical [1]” turned out to be 11 h. Besides, the distribution volume (Vd) in the data set “clinical [2]” amounted to 11 L/kg. Further, the half-life in the data set “clinical [3]” was 19 h. The same compound had a clearance in “clinical [4]” of 18 mL/min/kg.

As to `CC(C)NCC(O)COc1cccc2ccccc12` (centres undefined) [PROPRANOLOL], the mean residence time (MRT) in “clinical [1]” is 4.3 h. For the same compound, in “clinical [2]”, the Vd came out at 3.1 L/kg. The half-life in the data set “clinical [3]” was 3.4 h. In addition, in the data set “clinical [4]”, the clearance came out at 12 mL/min/kg.

The compound `O=C(CCCN1CCC(n2c(O)nc3ccccc32)CC1)c1ccc(F)cc1` [BENPERIDOL] yielded a mean residence time MRT in the data set “clinical [1]” of 7.5 h. The Vd in “clinical [2]” was found to be 3.8 L/kg. Also, in “clinical [3]”, the half-life is 5.8 h. Also, in the data set “clinical [4]”, the clearance was determined as 8.3 mL/min/kg.

In turn, `O=C(NCCN1CCOCC1)c1ccc(Cl)cc1` [MOCLOBEMIDE] gave an MRT in “clinical [1]” of 1.8 h. Moreover, in “clinical [2]”, the Vd turned out to be 1.1 L/kg. This compound also had a half-life in “clinical [3]” of 1.5 h. In “clinical [4]”, the clearance stood at 10 mL/min/kg.

In the data set “clinical [1]”, `NC(=O)CC[C@@H]1NC(=O)[C@H](Cc2ccccc2)NC(=O)[C@H](Cc2ccc(O)cc2)NC(=O)CCSSC[C@@H](C(=O)N2CCC[C@H]2C(=O)N[C@H](CCCN=C(N)N)C(=O)NCC(N)=O)NC(=O)[C@H](CC(N)=O)NC1=O` [DESMOPRESSIN] gave a mean residence time MRT of 3.6 h. For the same compound, the volume of distribution (Vd) in the data set “clinical [2]” is 0.3 L/kg. In “clinical [3]”, this compound had a half-life of 3 h. Moreover, the clearance in “clinical [4]” was 1.4 mL/min/kg.

`O=C(NCCNCC(O)COc1ccc(O)cc1)N1CCOCC1` (centres undefined) [XAMOTEROL] yielded a mean residence time (MRT) in the data set “clinical [1]” of 3.6 h. In “clinical [2]”, this compound yielded a volume of distribution (Vd) of 0.64 L/kg. The half-life in “clinical [3]” was 7.7 h. Moreover, the clearance in the data set “clinical [4]” stood at 3 mL/min/kg.

In “clinical [1]”, `CC(C)(C)NCC(O)COc1ccc(NC(=O)NC2CCCCC2)cc1` (centres undefined) [TALINOLOL] showed a mean residence time MRT of 11 h. In the data set “clinical [2]”, the Vd came to 3.3 L/kg. In addition, the half-life in the data set “clinical [3]” is 11 h. In “clinical [4]”, this compound yielded a clearance of 4.9 mL/min/kg.

The compound `OC(CCN1CCCC1)(c1ccccc1)C1CCCCC1` (centres undefined) [PROCYCLIDINE] gave an MRT in the data set “clinical [1]” of 14 h. The Vd in the data set “clinical [2]” came to 0.74 L/kg. Further, the half-life in “clinical [3]” is 12 h. In “clinical [4]”, this compound came in with a clearance of 0.86 mL/min/kg.

`N/N=c1/cc2c(n[nH]1)CCN(C(=O)c1ccccc1)C2` [ENDRALAZINE] gave an MRT in the data set “clinical [1]” of 2.7 h. Also, the volume of distribution (Vd) in “clinical [2]” turned out to be 2.2 L/kg. The same compound gave a half-life in “clinical [3]” of 5.6 h. Further, the clearance in the data set “clinical [4]” was found to be 13 mL/min/kg.

As a reminder, the MRT is the average time that molecules of a dose stay in the body. The term Vd denotes the apparent volume that relates the amount in the body to the concentration in plasma or blood. Broadly, the half-life is the time needed for the level to fall by half in the phase considered. Read a high half-life as slow loss. What is called clearance is the rate of elimination divided by the concentration. Read a high clearance as a high capacity for elimination.
